Data from ChEMBL document CHEMBL1157539, “Thousands of chemical starting points for antimalarial lead identification” (Nature, 2010).

The compounds below were run on Plasmodium falciparum (assay: GSK_TCMDC: Inhibition of Plasmodium falciparum 3D7 in whole erythrocytes, using parasite LDH activity as an index of growth.). Conditions: Plasmodium falciparum, 3D7.
Format: functional, organism-based

Point of comparison: `CN(C)CCNCc1nc(-c2ccc3c(Nc4ccc(Cl)cc4F)ccnc3c2)cs1`, XC50 809 nM. Against it:
- CN(C)CC1c2[nH]c3ccccc3c2CCN1C(=O)Nc1ccc(Cl)c(Cl)c1 (stereo not drawn) — within 1.5-fold, 1210 nM
- O=C(NCc1ccccc1F)c1ccc(N2CCC(NCc3cccc(-n4cccn4)c3)CC2)cc1 — 2.1-fold higher, 1730 nM
- CCOC(=O)C(C#N)NC(=O)C=Cc1ccccc1 (stereo not drawn) — within 1.5-fold, 804 nM
- Cc1c(F)cc(C(=O)NC2CC2)cc1-c1ccc2c(cnn2S(=O)(=O)c2ccc(C#N)cc2)c1 — 8.1-fold lower, 100 nM
- CS(=O)(=O)c1cccc(-c2cnc(N)c3cc(-c4cccc(F)c4)ccc23)c1 — within 1.5-fold, 860 nM
- COc1ccc(-c2cccc(NC(=O)c3cccc(Cl)c3)c2)cc1CN(C)CCN(C)C — within 1.5-fold, 813 nM
- Cc1ccc2c(c1[N+](=O)[O-])N=NCC2Oc1ccccc1 (stereo not drawn) — within 1.5-fold, 868 nM
- COc1ccc(-c2nonc2NC(=O)c2ccc(OC(C)C)cc2)cc1OC — within 1.5-fold, 635 nM
- Cc1ccccc1C1CCN(C2CCC(NC(=O)c3ccc(-c4ccccc4F)o3)CC2)CC1 (stereo not drawn) — within 1.5-fold, 1050 nM
- CCCc1cc(Cc2cnc(N)nc2N)cc(CCC)c1OCCCC(=O)OCC — 16-fold lower, 51.8 nM
- COc1cc(C(=O)NC2CC(C)(C)N(C)C(C)(C)C2)ccc1-c1cc2cc(Cl)c(Cl)cc2[nH]1 — within 1.5-fold, 1140 nM
- CC(C)[C@@H](NC(=O)NC1CCC(CCN2C3CCC2CC(OC(=O)C(CO)c2ccccc2)C3)CC1)C(O)(c1ccccc1)c1ccccc1 (stereo partly drawn) — within 1.5-fold, 812 nM
- Cc1cc(-c2nc3cc(C(=N)N)ccc3[nH]2)c(C)cc1-c1nc2cc(C(=N)N)ccc2[nH]1 — 2-fold lower, 397 nM
- COc1ccc(Nc2nc(NC3CCN(Cc4ccccc4)CC3)cc(-c3ccncc3)n2)cc1 — within 1.5-fold, 992 nM
- O=C(N[C@H](Cc1ccc(Cl)cc1)C(=O)N1CCN(c2ccnc3cc(Cl)ccc23)CC1)[C@H]1Cc2ccccc2CN1 — 1.9-fold lower, 424 nM
- CN1CCCN(Cc2cccc(-c3ccc(CNC(=O)c4cccc(Cl)c4)c(F)c3)c2)CC1 — 4.3-fold lower, 190 nM
- OC1(CNCc2ccccc2)CCN(CCc2c[nH]c3ccc(F)cc23)CC1 — within 1.5-fold, 710 nM
- COc1ccc(N2CCN(CCCCNC(=O)c3ccc(NC(=O)c4ccc(C(F)(F)F)cc4)cc3)CC2)c(OC)c1 — within 1.5-fold, 593 nM
- c1cc2[nH]c(CCCCc3nc4cc(C5=N[C@H]6CCCC[C@H]6N5)ccc4[nH]3)nc2cc1C1=N[C@H]2CCCC[C@H]2N1 — 1.9-fold lower, 415 nM
- O=S(=O)(Nc1cccc(CCN2CCCCC2CCN2CCCC2)c1)c1cccc2ccccc12 (stereo not drawn) — within 1.5-fold, 819 nM
- CCCOc1cc(OCCC)cc(-c2ccc(C(=O)Nc3ccc4ccc(C)nc4c3)c(=O)[nH]2)c1 — within 1.5-fold, 750 nM
- N#Cc1ccc2c(c1)CCN(CCC1CCC(NC(=O)Nc3ccncc3)CC1)C2 (stereo not drawn) — within 1.5-fold, 1130 nM
- COCC(=O)Nc1nc2ccccc2[nH]1 — 2.7-fold lower, 301 nM
- COc1ccc2nc3cc(Cl)ccc3c(NCCc3ccccc3)c2c1 — within 1.5-fold, 950 nM
- CN(C)Cc1cccc(-c2cc3c(-c4cnn(C)c4)c(Cl)cnc3[nH]2)c1 — within 1.5-fold, 905 nM
- CN(C)Cc1ccc(-c2ccc3c(Nc4ccc(Oc5ccccn5)cc4)ccnc3c2)o1 — 5.1-fold lower, 159 nM
- CS(=O)(=O)Nc1ccc2[nH]cc(C3CCN(CC4CCC(NC(=O)/C=C/c5ccccc5Cl)CC4)CC3)c2c1 (stereo not drawn) — within 1.5-fold, 793 nM
- CCOc1ccccc1C1CCN(CCCCNC(=O)c2ccc(NC(=O)c3ccc(Cl)cc3)cc2)CC1 — within 1.5-fold, 846 nM
- O=C(Nc1ccc(C(F)(F)F)cc1)c1cccc(S(=O)(=O)NC2CCN(CC3CCCCC3)C2)c1 (stereo not drawn) — within 1.5-fold, 690 nM
- CC(Nc1ncc(-c2ccsc2)c(-c2nccs2)n1)c1ccc2c(c1)OCCO2 (stereo not drawn) — 4.6-fold lower, 175 nM
- O=S(=O)(c1ccccc1C(F)(F)F)C1CC2CCC(C1)N2S(=O)(=O)c1ccc(Cl)c(C(F)(F)F)c1 (stereo not drawn) — within 1.5-fold, 706 nM
- Cc1[nH]c(C)c(-c2ccc(OCc3ccc(F)cc3)cc2)c(=O)c1Br — 10-fold lower, 77.2 nM
- CC(C)(CNCc1ccc(OC(F)(F)F)cc1)c1nc(-c2ccc(Cl)c(O)c2)c(-c2ccncc2)[nH]1 — within 1.5-fold, 545 nM
- CCOc1ccc2ccccc2c1C(=O)Nc1cc(C)nn1-c1nc(C)cc(=O)[nH]1 — within 1.5-fold, 1010 nM
- CCOc1cc(C(=O)Nc2cccnc2)cc(Br)c1OCCC(C)C — within 1.5-fold, 1080 nM
- CN(C)CCCc1cc2c(cc1Cl)CCN2C(=O)Nc1ccc(-c2ccncc2)c2ccccc12 — within 1.5-fold, 1180 nM
- O=C(CC1NC(=O)c2ccccc21)Nc1ccc(-c2cccc(-c3nc4cc(C(F)(F)F)ccc4[nH]3)c2)cc1 (stereo not drawn) — within 1.5-fold, 958 nM
- CC(C)N1CCN(C(CN2CCN(CCCOc3cccc(-c4ccccc4)c3)CC2)c2ccc(F)cc2)CC1 (stereo not drawn) — within 1.5-fold, 892 nM
- CN(C)CCNC(=O)[C@H](CC1CCCCC1)NC(=O)c1ccc(O)c(-c2ccc(Cl)c(Cl)c2)c1 — within 1.5-fold, 775 nM
- Cc1cc(=NN=Cc2ccccc2Cl)c2cc(C(F)(F)F)ccc2[nH]1 — within 1.5-fold, 858 nM
- COc1c(C2CCN(CCCCNC(=O)c3cc(-c4ccc(Cl)cc4)oc3C)CC2)ccc2c1CCCC2 — within 1.5-fold, 882 nM
- CCOc1c(CNCCCNc2nc3ccccc3[nH]2)cc(I)cc1OC — within 1.5-fold, 663 nM
- O=C(Nc1ccccc1)OCCOc1ccc(CC2SC(=O)NC2=O)cc1 (stereo not drawn) — 2.2-fold lower, 371 nM
- CC(C)CCN1CCCN(Cc2cccc(NC(=O)c3cc4ccccc4s3)c2)CC1 — within 1.5-fold, 917 nM
- CC[C@H](NC(=O)c1c(CC2CCN(CC(C)=O)CC2)c(-c2ccccc2)nc2ccccc12)c1ccccc1 — 2.1-fold lower, 381 nM
- CCCC1(NC[C@@H](O)[C@H](Cc2ccccc2)NC(=O)c2cc(NCC)cc(N3CCCCS3(=O)=O)c2)CC1 — within 1.5-fold, 1080 nM
- Cc1cccc(Nc2nccc(NCC(O)c3cccc(C(F)(F)F)c3)n2)c1 (stereo not drawn) — 1.6-fold lower, 514 nM
- CC(Oc1cc(-n2cnc3ccc(NC(=O)CCN4CCCCC4)cc32)sc1C(N)=O)c1ccccc1Cl (stereo not drawn) — 2-fold lower, 400 nM
- COc1ccc(C(=O)NC(c2ccc(Cl)cc2Cl)c2cc(Cl)c3cccnc3c2O)cc1 (stereo not drawn) — 1.6-fold lower, 499 nM
- N=c1n(CCN2CCCCC2)c2ccccc2n1CC(O)c1ccc(Cl)c(Cl)c1 (stereo not drawn) — 2.5-fold lower, 320 nM
- C#CCNCc1ccc(-c2ccc(-c3nc4cc(C(F)(F)F)ccc4[nH]3)s2)cc1 — within 1.5-fold, 744 nM
- CCOc1ccc2[nH]c(C)cc(=NN=Cc3cccc(F)c3)c2c1 — within 1.5-fold, 736 nM
- CCOC(=O)c1c(CCc2ccc(C(F)(F)F)cc2)nc2c(c1-c1ccc(C(=O)N[C@@H](C)c3ccncc3)cc1)C(=O)N1CCC[C@@H]21 — within 1.5-fold, 924 nM
- CCCN(CC1CC1)c1nc(C)nc2c(-c3ccccc3)cc(C)cc12 — within 1.5-fold, 1020 nM
- CC1CCCN(C(=O)C(C)Nc2cc(Cl)ccc2N2CCOCC2)C1 (stereo not drawn) — 2.6-fold lower, 316 nM
- CC(C)CNC(=O)c1cncc(-c2cccc(CNC3Cc4ccccc4C3)c2)c1 — within 1.5-fold, 786 nM
- O=C(NCCN1CCCC1)N1CCCN(c2ncnc3cc(-c4ccc(Cl)cc4)sc23)CC1 — within 1.5-fold, 918 nM
- COc1cc2nc(N3CCN(c4nc(N)c5cc(OC)c(OC)cc5n4)CC3)nc(N)c2cc1OC — 5.5-fold lower, 146 nM
- Nc1nc(N)c2c(n1)CCC(c1ccccc1)C2 (stereo not drawn) — within 1.5-fold, 1010 nM
- c1cc(CNCCc2ccncc2)cc(-c2ccc(-c3nc4ccccc4[nH]3)s2)c1 — 2.4-fold lower, 336 nM
- CN1CCCC(OC(=O)c2ccccc2)C1 (stereo not drawn) — within 1.5-fold, 756 nM
- Cc1cc(-c2ccc3c(c2)CCN(CCC2CCC(NC(=O)/C=C/c4ccccc4F)CC2)CC3)on1 (stereo not drawn) — within 1.5-fold, 811 nM
- CC(C)C[C@H](NC(=O)c1cc2ccccc2s1)C(=O)N[C@H]1CCN(Cc2ccc(OCCN3CCNCC3)c3ccccc23)C1 — 1.8-fold higher, 1420 nM
- CC(C)C1=C[C@H]2C[C@]3(C4OCCO4)[C@@H]4CC[C@@H](C)[C@H]4C[C@@]2(COCc2cccc(C#N)c2)[C@]13C(=O)OC(c1ccccc1)c1ccccc1 — 2.2-fold higher, 1790 nM
- [O-][S+]1c2ccccc2Sc2ccccc21 — 4.8-fold lower, 168 nM
- FC(F)(F)c1ccc2[nH]c(-c3ccc(-c4cccc(CN5CCN(c6ccncc6)CC5)c4)cc3)nc2c1 — 6.9-fold lower, 118 nM
- CC(C)c1sc(N2CCN(C)CC2)nc1C(=O)NCCc1ccc(Br)cc1 — within 1.5-fold, 1130 nM
